How the values were obtained:
[1] = test system: Mycosphaerella arachidis (Cercospora arachidicola); assay: Mycosphaerella arachidis (Cercospora arachidicola)/Liquid Culture (Early Leaf Spot); assay type: cell-based; settings: liquid culture, compared to untreated control
In short: (§1)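 First, the test compound in DMSO is placed in the wells. Next, potato dextrose broth seeded with conidia taken straight from cryogenic storage is added, and the culture is left to grow.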

[2] = test system: Mycosphaerella graminicola (Septoria tritici); assay: Mycosphaerella graminicola (Septoria tritici)/Liquid Culture (Septoria Blotch); assay type: cell-based; settings: Zymoseptoria tritici; 20 ppm; liquid culture; compared to untreated control
In short: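 Conidia from cryogenic storage mixed into potato dextrose broth and added to microtiter wells already holding DMSO solutions of test compound. Activity expressed as percentage disease control.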

[3] = test system: Phytophthora infestans; assay: whole plant or invertebrate; assay type: in vivo; settings: in Solanum lycopersicum, foliar, read-out: control of Phytophthora infestans
[4] = test system: Thanatephorus cucumeris (Rhizoctonia solani); assay: Thanatephorus cucumeris (Rhizoctonia solani)/Liquid Culture (Foot Rot, Damping-Off); assay type: cell-based; settings: liquid culture, compared to untreated control
Experimental: Mycelia fragments of a newly grown liquid culture of the fungus are directly mixed into nutrient broth (PDB potato dextrose broth). After placing a (DMSO) solution of the test compounds into a microtiter plate (96-well format), the nutrient broth containing the fungal material is added.

[5] = test system: Monographella nivalis (Microdochium nivale); assay: Monographella nivalis (Microdochium nivale)/Liquid Culture (Foot Rot Cereals); assay type: cell-based; settings: liquid culture, compared to untreated control
In short: as §1

[6] = test system: Magnaporthe grisea (Pyricularia oryzae); assay: whole plant or invertebrate; assay type: in vivo; settings: foliar, read-out: control of Magnaporthe grisea
[7] = test system: Pyrenophora teres; assay: Pyrenophora teres/Barley/Leaf Disc Preventative (Net Blotch); assay type: in vivo; settings: foliar, 200 ppm, barley leaf disc preventative, compared to untreated control, read-out: control of Pyrenophora teres
In short: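 Formulated compound, diluted in water, sprayed onto barley cv. Hasso leaf segments on agar; spore suspension inoculation followed 2 days after application. Results expressed as percentage disease control.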

[8] = test system: Phaeosphaeria nodorum (Septoria nodorum); assay: Phaeosphaeria nodorum (Septoria nodorum)/Wheat/Leaf Disc Preventative (Glume Blotch); assay type: in vivo; settings: Parastagonospora nodorum, foliar, wheat leaf disc preventative, compared to untreated control
In short: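 Wheat cv. Kanzler leaf discs on agar were sprayed with formulated compound diluted in water and inoculated with P. nodorum spores 2 days later. Discs kept at 20 °C, 75% rh, 12 h light/dark; percent disease control versus untreated scored 5–7 days after application.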

[9] = test system: Plasmopara viticola; assay: whole plant or invertebrate; assay type: in vivo; settings: foliar, read-out: control of Plasmopara viticola
[10] = test system: Blumeria graminis f. sp. tritici (Erysiphe graminis f. sp. tritici); assay: Blumeria graminis f. sp. tritici/Wheat/Leaf Disc Preventative (Powdery Mildew on Wheat); assay type: in vivo; settings: foliar, wheat leaf disc preventative, compared to untreated control
In short: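 Wheat cv. Kanzler leaf segments on agar sprayed with formulated compound, inoculated with powdery mildew 1 day later and held at 20° C, 60% rh (24 h dark, then 12 h light/12 h dark). Percent disease control versus untreated scored 6-8 days after application.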

[11] = Photostability assay (Atlas Suntest); assay type: physicochemical; settings: Suntest 750 W/m^2, spotted on microscope slides
Experimental: The testing method to measure the photostability data of each compound in table is D1 is as specifically described below. The objective of the photostability assay was to determine the stability of the individual test compounds in a strictly controlled and reproducible environment allowing a comparison of their photostability.
Method: Compounds were dissolved in methanol (HPLC grade) to give 1 g/L stock solutions. Compound stock solution (2 μl) was spotted onto microscope slides in a 3D printed holder and put into the Atlas Suntest. The spectral output power of the Suntest was set to 750 W/m^2, which is considered typical of the daily maximum (noon) irradiance level on a very bright British Summer day. At specific time points slides were removed from the Suntest and placed in 4D vials. Wash solvent made up of 50:40:10 H2O:MeCN:THF (1 mL) is then added to the vials and whirlimixed. The resulting solution is then subsampled to an HPLC vial to be analysed. A Waters UPLC system with Photodiode Array was used with a Waters reverse phase column (BEH C18, 100×2.1 mm×1.7 μm) and acetonitrile (HPLC grade) acidified water (0.2% formic acid) mobile phase at a flow rate of 0.6 mL/min. Peak detection was at the optimum wavelength and peak areas were used for quantification
Initial and subsequent measurements of peak area attributable to the test compound were used to provide a % parent remaining at 3 hours.

[12] = test system: Botryotinia fuckeliana (Botrytis cinerea); assay: Botryotinia fuckeliana (Botrytis cinerea)/Liquid Culture (Gray Mould); assay type: cell-based; settings: liquid culture, compared to untreated control
Experimental: Conidia of the fungus from cryogenic storage are directly mixed into nutrient broth (Vogels broth). After placing a (DMSO) solution of test compound into a microtiter plate (96-well format), the nutrient broth containing the fungal spores is added.

[13] = test system: Glomerella lagenarium (Colletotrichum lagenarium); assay: Glomerella lagenarium (Colletotrichum lagenarium)/Liquid Culture (Anthracnose); assay type: cell-based; settings: Colletotrichum orbiculare, liquid culture, compared to untreated control
[14] = test system: Phakopsora pachyrhizi; assay: Phakopsora pachyrhizi/Soybean/Preventative (Soybean Rust); assay type: in vivo; settings: 288 h, Phakopsora pachyrhizi (Soybean rust); for pest or weed control at 200 ppm: read-out: control (%)
[15] = test system: Alternaria solani; assay: Alternaria solani/Tomato/Leaf Disc (Early Blight); assay type: in vivo; settings: foliar, tomato leaf disc, compared to untreated control
In short: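 Tomato cv. Baby leaf disks on agar were sprayed with diluted formulated compound and inoculated with spores 2 days later. Incubation at 23° C./21° C. day/night, 80% rh, 12/12 h light; percent disease control versus untreated scored 5-7 days after application.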

[16] = test system: Puccinia recondita f. sp. tritici; assay: Puccinia recondita f. sp. tritici/Wheat/Leaf Disc Preventative (Brown Rust); assay type: in vivo; settings: foliar, 200 ppm, wheat leaf disc preventative, compared to untreated control, read-out: control of Puccinia recondita f. sp. tritici
[17] = test system: Puccinia recondita f. sp. tritici; assay: Puccinia recondita f. sp. tritici/Wheat/Leaf Disc Curative (Brown Rust); assay type: in vivo; settings: foliar, wheat leaf disc curative, compared to untreated control
In short: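 Curative leaf-disc test on wheat cv. Kanzler segments on agar, spore-inoculated and kept dark at 19° C, 75% rh; formulated compound in water applied 1 day after inoculation. Incubated at 19° C, 75% rh, 12 h light/12 h dark; percent disease control versus untreated scored 6-8 days after application.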

Structure (SMILES) | inhibition of growth at 20 ppm [1] | inhibition of growth at 20 ppm [2] | pest or weed control at 200 ppm [3] | inhibition of growth at 20 ppm [4] | inhibition of growth at 20 ppm [5] | pest or weed control at 200 ppm [6] | pest or weed control at 200 ppm [7] | pest or weed control at 200 ppm [8] | pest or weed control at 200 ppm [9] | melting point | pest or weed control at 200 ppm [10] | % Parent Remaining @ 3 hrs [11] | inhibition of growth at 20 ppm [12] | inhibition of growth at 20 ppm [13] | pest or weed control at 0.6 ppm [14] | pest or weed control at 2 ppm [14] | pest or weed control at 6 ppm [14] | pest or weed control at 20 ppm [14] | pest or weed control at 60 ppm [14] | pest or weed control at 200 ppm [14] | also measured
CCC(C)c1ccn(-c2ccc(C)c(O/C(=C\OC)C(=O)OC)c2)n1 (stereo not drawn) [Compound E-44, methyl (Z)-3-methoxy-2-[2-methyl-5-(3-sec-butylpyrazol-1-yl)phenoxy]prop-2-enoate] | ≥ 80% | ≥ 80% | ≥ 80% | ≥ 80% | ≥ 80% | ≥ 80% | ≥ 80% | ≥ 80% | ≥ 80% | 110 to 113 °C | ≥ 80% | 69% | ≥ 80% | ≥ 80% |  |  |  |  |  |  | 
CO/C=C(\Oc1cccc(-n2cccc2)c1)C(=O)OC [Compound X-1, reference compound] |  |  |  |  |  |  |  |  |  |  |  | 9% |  |  | 0% | 0% | 0% | 10% | 10% | 45% | 
CO/C=C(\Oc1cc(-n2ccc(C(F)(F)F)n2)ccc1C)C(=O)OC [Compound E-105, methyl (Z)-3-methoxy-2-[2-methyl-5-[3-(trifluoromethyl)pyrazol-1-yl]phenoxy]prop-2-enoate] | ≥ 80% | ≥ 80% |  |  | ≥ 80% | ≥ 80% | ≥ 80% | ≥ 80% | ≥ 80% | 154 to 156 °C | ≥ 80% | 74% | ≥ 80% | ≥ 80% | 0% | 0% | 20% | 95% | 100% | 100% | pest or weed control at 200 ppm [15]: ≥ 80%
CO/C=C(\Oc1cc(-n2ccc(C3CCC3)n2)ccc1C)C(=O)OC [Compound E-88, methyl (Z)-2-[5-(3-cyclobutylpyrazol-1-yl)-2-methyl-phenoxy]-3-methoxy-prop-2-enoate] | ≥ 80% | ≥ 80% | ≥ 80% |  | ≥ 80% | ≥ 80% |  | ≥ 80% | ≥ 80% | 91 to 94 °C | ≥ 80% | 34% | ≥ 80% | ≥ 80% |  |  |  |  |  |  | pest or weed control at 200 ppm [15]: ≥ 80%
CO/C=C(\Oc1cc(-n2ccc(OC(C)C)n2)ccc1C)C(=O)OC [Compound E-70, methyl (Z)-2-[5-(3-isopropoxypyrazol-1-yl)-2-methyl-phenoxy]-3-methoxy-prop-2-enoate] | ≥ 80% | ≥ 80% | ≥ 80% |  | ≥ 80% | ≥ 80% | ≥ 80% | ≥ 80% | ≥ 80% | 94 to 97 °C | ≥ 80% | 25% |  | ≥ 80% |  |  |  |  |  |  | pest or weed control at 200 ppm [15]: ≥ 80%
CO/C=C(\Oc1cc(-n2ccc(C(C)C)n2)c(F)cc1C)C(=O)OC [Compound E-41, methyl (Z)-2-[4-fluoro-5-(3-isopropylpyrazol-1-yl)-2-methyl-phenoxy]-3-methoxy-prop-2-enoate] | ≥ 80% | ≥ 80% |  | ≥ 80% | ≥ 80% | ≥ 80% |  |  | ≥ 80% |  | ≥ 80% | 28% |  | ≥ 80% |  |  |  |  |  |  | pest or weed control at 200 ppm [16]: ≥ 80%; pest or weed control at 200 ppm [17]: ≥ 80%
CO/C=C(\Oc1cc(-n2ccc(C3CC3)n2)ccc1C)C(=O)OC [Compound E-101, methyl (Z)-2-[5-(3-cyclopropylpyrazol-1-yl)-2-methyl-phenoxy]-3-methoxy-prop-2-enoate] | ≥ 80% | ≥ 80% | ≥ 80% | ≥ 80% | ≥ 80% |  |  | ≥ 80% | ≥ 80% | 115 to 118 °C | ≥ 80% | 38% | ≥ 80% | ≥ 80% |  |  |  |  |  |  | 
CCCc1ccn(-c2ccc(C)c(O/C(=C\OC)C(=O)OC)c2)n1 [Compound E-40, methyl (Z)-3-methoxy-2-[2-methyl-5-(3-propylpyrazol-1-yl)phenoxy]prop-2-enoate] | ≥ 80% | ≥ 80% | ≥ 80% | ≥ 80% | ≥ 80% | ≥ 80% |  | ≥ 80% | ≥ 80% | 91 to 94 °C | ≥ 80% | 65% | ≥ 80% | ≥ 80% | 10% | 35% | 90% | 95% | 100% | 100% | 
CO/C=C(\Oc1cc(-n2ccc(CC(C)C)n2)ccc1C)C(=O)OC [Compound E-90, methyl (Z)-2-[5-(3-isobutylpyrazol-1-yl)-2-methyl-phenoxy]-3-methoxy-prop-2-enoate] | ≥ 80% | ≥ 80% | ≥ 80% |  | ≥ 80% | ≥ 80% |  | ≥ 80% | ≥ 80% | 76 to 80 °C | ≥ 80% | 42% | ≥ 80% | ≥ 80% |  |  |  |  |  |  | 

Source: patent US12043600B2, “Microbiocidal compounds” (SYNGENTA CROP PROTECTION AG, priority 2018, dated 2024)
